Source: US4159328A, “Tetrahydro-1,3,5-thiadiazin-4-one derivative” (Nihon Nohyaku Co., Ltd., priority 1977, dated 1979)

Assays:
[1] = system: larvae of house mosquito (Culex pipiens pallens Coquillett); assay: Test Example 6: insecticidal activity to larvae of house mosquito; format: in vivo; details: 120 h
How it was run: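 Twenty first-instar Culex pipiens pallens larvae placed with feed in test composition diluted in deionized water to 10 ppm. Kept at 25 °C, and mortality counted five days after treatment.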

mammalian acute toxicity = details: mouse, in vivo, mice, male
Experimental: For example, 2-t-butylimino-3-isopropyl-5-phenyltetrahydro-1,3,5-thiadiazin-4-one (compound No. 145) and 2-t-butylimino-3-isopropyl-5-p-tolyltetrahydro-1,3,5-thiadiazin-4-one (compound No. 318) have LD50 (mice, male) of 10,000 mg/kg or higher. Many other compounds of this invention have LD50 (mice, male) of 5,000 mg/kg or higher.

[2] = system: larvae of bug. (Togo hemipterus Scott); assay: Test Example 9: insecticidal activity against larvae of bug; format: in vivo; details: 120 h
Experimental: Insecticidal activity against larvae of bug. (Togo hemipterus Scott).
Test method: Into a glass tube (1.6 cm in internal diameter and 9 cm in length), was added 1 ml of a test composition in 10 ppm concentration just to moisten the absorbent cotton. Five rice seeds and five first-instar larvae were introduced into the glass tube and the tube end was covered with a piece of Japanese paper. The glass tube was kept in a constant temperature cabinet at 25° C. Five days after treatment, the dead-and-survival was inspected to calculate the mortality (3-replication test).

[3] = system: larvae of green rice leafhopper (Nephotettix cincticeps Uhler); assay: Test Example 5: activity against larvae of green rice leafhopper; format: in vivo; details: 168 h
How it was run: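 Rice seedlings at 1.5 leaf age dipped 30 seconds in 400 ppm test composition, air-dried, then infested with five second-instar larvae. Kept at 25° C; mortality scored seven days after treatment, three replicates.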

[4] = system: larvae of white-backed planthopper (Sogatella furcifera Horvath); assay: Test Example 2: insecticidal activity against larvae of white-backed planthopper; format: in vivo; details: 168 h
How it was run: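 Rice seedlings at 1.5-leaf stage were dipped 30 s in 400 ppm test composition, air-dried, and infested with five first-instar larvae. Tubes were held at 25°C, and mortality was scored at 7 days from triplicate tests.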

[5] = system: 5th-instar larvae of brown planthopper; assay: mortality in 7 days after spraying on 5th-instar larvae of brown planthopper; format: in vivo; details: Nilaparvata lugens, 168 h; 100 ppm, 5th-instar larvae, 7 days
[6] = system: larvae of 28-spotted lady beetle (Epilachna vigintioctopunctana Fabricius); assay: Test Example 8: insecticidal activity against larvae of 28-spotted lady beetle; format: in vivo; details: 120 h
How it was run: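 Tomato leaflets dipped 30 s in 100 ppm test composition, air-dried, and placed in Petri dishes with seven second-instar larvae at 25° C. Mortality scored five days after treatment, two replicates.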

[7] = system: cirrus red mite (Panonychus citri McGregor); assay: Test Example 4: activity to citrus red mite (Rothamstead method); format: in vivo; details: two days after treatment, 25° C.; 2880 min
Experimental: Activity to cirrus red mite (Panonychus citri McGregor).
Testing method: The test was performed by Rothamstead method. A test composition was sprayed by means of a spray gun over grapefruit leaves infested with citrus red mites. After air-drying the grapefruit was left standing in a constant temperature cabinet at 25° C. Two days after the treatment, the number of survived mites was counted to calculate the mortality.

Q: Which mortality at 10 ppm [1] does the source give for `CC(C)N1C(=O)N(c2ccccc2)CSC1=NC(C)(C)C` [Compound 145, 2-t-Butylimino-3-isopropyl-5-phenyl-tetrahydro-1,3,5-thiadiazin-4-one] here?
A: 100%

Q: And the LD50 (mammalian acute toxicity)?
A: ≥ 10000 mg/kg

Q: And the mortality at 10 ppm [2]?
A: 100%

Q: What about the mortality at 400 ppm [3] of the same compound?
A: 100%

Q: And the mortality at 400 ppm [4]?
A: 100%

Q: What about the mortality at 100 ppm [5] of the same compound?
A: 100%

Q: And the mortality at 100 ppm [6]?
A: 100%

Q: And the Mortality [7]?
A: 100%
